Test results from patent publication US7304093B2, “Ketone compounds and compositions for cholesterol management and related uses” (Esperion Therapeutics, Inc., priority 2000, dated 2007).
Where two headings read alike, the source gives them in different places. Marks after values point to notes of the source that are not given here.

System: female obese Zucker rats
Assay: Serum lipid and glycemic control variables in chow-fed obese female Zucker rats, daily oral gavage for two weeks
Assay type: in vivo, rat
Settings: for change in vivo at 100 mg/kg: Rattus norvegicus, Table 9; for Glucose / HDL-C / NEFA / Non-HDL-C / TG / Insulin: serum, mean ± SEM; for Insulin: Tables 10, 11
Method in brief: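 Female obese Zucker fa rats, 10–12 wk, 400–500 g, chow-fed, dosed daily by oral gavage for 14 days in CMC/Tween 20 or ethanol/PEG-200 vehicle. After a 6-h fast, serum was sampled pre-dose, day 7 and day 14. Triglycerides, total cholesterol, NEFA and β-hydroxybutyrate were measured, plus lipoprotein cholesterol by gel-filtration profiling.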

CC(C)(CO)CCCCC(=O)CCCCC(C)(C)CO [Compound 214c, 1,13-Dihydroxy-2,2,12,12-tetramethyltridecan-7-one]
HDL-C, percent increase (+) or decrease (−) of the pretreatment control value (3 mg/kg daily oral, 1 wk): (−10) percent
HDL-C, percent increase (+) or decrease (−) of the pretreatment control value (3 mg/kg daily oral, 2 wk): (−19) percent
NEFA, percent increase (+) or decrease (−) of the pretreatment control value (3 mg/kg daily oral, 2 wk): (+145) percent
HDL-C, percent increase (+) or decrease (−) of the pretreatment control value (10 mg/kg daily oral, 1 wk): (+113) percent
NEFA, percent increase (+) or decrease (−) of the pretreatment control value (10 mg/kg daily oral, 1 wk): (−18) percent
TG, percent increase (+) or decrease (−) of the pretreatment control value (10 mg/kg daily oral, 1 wk): (−23) percent
HDL-C, percent increase (+) or decrease (−) of the pretreatment control value (10 mg/kg daily oral, 2 wk): (+115) percent
HDL-C, percent increase (+) or decrease (−) of the pretreatment control value (30 mg/kg daily oral, 1 wk): (+140) percent
NEFA, percent increase (+) or decrease (−) of the pretreatment control value (30 mg/kg daily oral, 1 wk): (−21) percent
TG, percent increase (+) or decrease (−) of the pretreatment control value (30 mg/kg daily oral, 1 wk): (−27) percent
HDL-C, percent increase (+) or decrease (−) of the pretreatment control value (30 mg/kg daily oral, 2 wk): (+142) percent
Non-HDL-C, percent increase (+) or decrease (−) of the pretreatment control value (30 mg/kg daily oral, 2 wk): (+127) percent
HDL-C, percent increase (+) or decrease (−) of the pretreatment control value (100 mg/kg daily oral, 1 wk): (+173) percent
NEFA, percent increase (+) or decrease (−) of the pretreatment control value (100 mg/kg daily oral, 1 wk): (−30) percent
TG, percent increase (+) or decrease (−) of the pretreatment control value (100 mg/kg daily oral, 1 wk): (−54) percent
HDL-C, percent increase (+) or decrease (−) of the pretreatment control value (100 mg/kg daily oral, 2 wk): (+176) percent
NEFA, percent increase (+) or decrease (−) of the pretreatment control value (100 mg/kg daily oral, 2 wk): (−33) percent
TG, percent increase (+) or decrease (−) of the pretreatment control value (100 mg/kg daily oral, 2 wk): (−33) percent
change in vivo at 100 mg/kg (168 h, 100 mg/kg daily oral, 1 wk, read-out: HDL-Cholesterol, Percent Change from Pre-Treatment): 110%
change in vivo at 100 mg/kg (168 h, 100 mg/kg daily oral, 1 wk, read-out: NonHDL-Cholesterol, Percent Change from Pre-Treatment): -23%
change in vivo at 100 mg/kg (168 h, 100 mg/kg daily oral, 1 wk, read-out: TG, Percent Change from Pre-Treatment): -54%
change in vivo at 100 mg/kg (336 h, 100 mg/kg daily oral, 2 wk, read-out: HDL-Cholesterol, Percent Change from Pre-Treatment): 126%
change in vivo at 100 mg/kg (336 h, 100 mg/kg daily oral, 2 wk, read-out: NonHDL-Cholesterol, Percent Change from Pre-Treatment): -10%
change in vivo at 100 mg/kg (336 h, 100 mg/kg daily oral, 2 wk, read-out: TG, Percent Change from Pre-Treatment): -29%
Glucose (3 mg/kg daily oral, 1 wk): 106 ± 2 mg/dL
HDL-C (3 mg/kg daily oral, 1 wk): 43 ± 4^a mg/dl
NEFA (3 mg/kg daily oral, 1 wk): 1.2 ± 0.05 mg/dL
Non-HDL-C (3 mg/kg daily oral, 1 wk): 25 ± 3 mg/dL
TG (3 mg/kg daily oral, 1 wk): 800 ± 75 mg/dL
Insulin (3 mg/kg daily oral, 1 wk): 7.5 ± 0.8 ng/mL
Glucose (3 mg/kg daily oral, 2 wk): 103 ± 3 mg/dL
HDL-C (3 mg/kg daily oral, 2 wk): 39 ± 4^a mg/dl
NEFA (3 mg/kg daily oral, 2 wk): 1.6 ± 0.13
Non-HDL-C (3 mg/kg daily oral, 2 wk): 22 ± 2 mg/dL
TG (3 mg/kg daily oral, 2 wk): 781 ± 65 mg/dL
Insulin (3 mg/kg daily oral, 2 wk): 7.8 ± 0.6 ng/mL
Glucose (10 mg/kg daily oral, 1 wk): 110 ± 2 mg/dL
HDL-C (10 mg/kg daily oral, 1 wk): 52 ± 3^a mg/dl
NEFA (10 mg/kg daily oral, 1 wk): 0.98 ± 0.08
Non-HDL-C (10 mg/kg daily oral, 1 wk): 21 ± 2 mg/dL
TG (10 mg/kg daily oral, 1 wk): 602 ± 37^a mg/dl
Insulin (10 mg/kg daily oral, 1 wk): 7.5 ± 0.4 ng/mL
Glucose (10 mg/kg daily oral, 2 wk): 110 ± 3 mg/dL
HDL-C (10 mg/kg daily oral, 2 wk): 53 ± 4^a mg/dl
NEFA (10 mg/kg daily oral, 2 wk): 1.0 ± 0.10 mg/dL
Non-HDL-C (10 mg/kg daily oral, 2 wk): 25 ± 2 mg/dL
TG (10 mg/kg daily oral, 2 wk): 730 ± 52 mg/dL
Insulin (10 mg/kg daily oral, 2 wk): 7.8 ± 0.5 ng/mL
Glucose (30 mg/kg daily oral, 1 wk): 112 ± 13 mg/dL
HDL-C (30 mg/kg daily oral, 1 wk): 60 ± 3^a mg/dl
NEFA (30 mg/kg daily oral, 1 wk): 1.1 ± 0.05
Non-HDL-C (30 mg/kg daily oral, 1 wk): 28 ± 2 mg/dL
TG (30 mg/kg daily oral, 1 wk): 726 ± 49^a mg/dl
Insulin (30 mg/kg daily oral, 1 wk): 0.091 ± 0.006 ng/mL
Glucose (30 mg/kg daily oral, 2 wk): 120 ± 3 mg/dL
HDL-C (30 mg/kg daily oral, 2 wk): 61 ± 4^a mg/dl
NEFA (30 mg/kg daily oral, 2 wk): 1.2 ± 0.10 mg/dL
Non-HDL-C (30 mg/kg daily oral, 2 wk): 38 ± 5^a mg/dl
TG (30 mg/kg daily oral, 2 wk): 985 ± 110 mg/dL
Insulin (30 mg/kg daily oral, 2 wk): 0.098 ± 0.007 ng/mL
Glucose (100 mg/kg daily oral, 1 wk): 120 ± 5 mg/dL
HDL-C (100 mg/kg daily oral, 1 wk): 78 ± 5^a mg/dl
NEFA (100 mg/kg daily oral, 1 wk): 0.98 ± 0.04
Non-HDL-C (100 mg/kg daily oral, 1 wk): 23 ± 1 mg/dL
TG (100 mg/kg daily oral, 1 wk): 485 ± 29^a mg/dl
Insulin (100 mg/kg daily oral, 1 wk): 0.109 ± 0.01 ng/mL
Glucose (100 mg/kg daily oral, 2 wk): 118 ± 3 mg/dL
HDL-C (100 mg/kg daily oral, 2 wk): 79 ± 6^a mg/dl
NEFA (100 mg/kg daily oral, 2 wk): 0.94 ± 0.04
Non-HDL-C (100 mg/kg daily oral, 2 wk): 32 ± 2 mg/dL
TG (100 mg/kg daily oral, 2 wk): 702 ± 53^a mg/dl
Insulin (100 mg/kg daily oral, 2 wk): 0.11 ± 0.009 ng/mL
